Data as given in patent US10189841B2, “Purinones as ubiquitin-specific protease 1 inhibitors” (Forma Therapeutics, Inc., priority 2015, dated 2019).
pIC50: −log10 of the molar value.

Target: USP1 (construct USP1 (I-785, GG670, 671AA)/UAF1 (I-677)-Flag) (Homo sapiens (Human), UniProt O94782, G670A/G671A)
Experiment: Ubiquitin-Rhodamine 110 assay for USP1 activity
Assay type: biochemical
Conditions: USP1/UAF1 25 pM, Ub-Rh110 25 nM, 30 min preincubation
How it was run: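 Ub-Rh110 (25 nM, ≪Km) cleavage read at ex 485/em 535 in Tris pH 8.0, CaCl2, GSH, Prionex, Triton X-100. The screen used 10 µM compound, 100 pM USP1/UAF1 and 45 min at RT.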

USP1 (construct USP1 (I-785, GG670, 671AA)/UAF1 (I-677)-Flag), sequence (O94782 whole entry G670A/G671A): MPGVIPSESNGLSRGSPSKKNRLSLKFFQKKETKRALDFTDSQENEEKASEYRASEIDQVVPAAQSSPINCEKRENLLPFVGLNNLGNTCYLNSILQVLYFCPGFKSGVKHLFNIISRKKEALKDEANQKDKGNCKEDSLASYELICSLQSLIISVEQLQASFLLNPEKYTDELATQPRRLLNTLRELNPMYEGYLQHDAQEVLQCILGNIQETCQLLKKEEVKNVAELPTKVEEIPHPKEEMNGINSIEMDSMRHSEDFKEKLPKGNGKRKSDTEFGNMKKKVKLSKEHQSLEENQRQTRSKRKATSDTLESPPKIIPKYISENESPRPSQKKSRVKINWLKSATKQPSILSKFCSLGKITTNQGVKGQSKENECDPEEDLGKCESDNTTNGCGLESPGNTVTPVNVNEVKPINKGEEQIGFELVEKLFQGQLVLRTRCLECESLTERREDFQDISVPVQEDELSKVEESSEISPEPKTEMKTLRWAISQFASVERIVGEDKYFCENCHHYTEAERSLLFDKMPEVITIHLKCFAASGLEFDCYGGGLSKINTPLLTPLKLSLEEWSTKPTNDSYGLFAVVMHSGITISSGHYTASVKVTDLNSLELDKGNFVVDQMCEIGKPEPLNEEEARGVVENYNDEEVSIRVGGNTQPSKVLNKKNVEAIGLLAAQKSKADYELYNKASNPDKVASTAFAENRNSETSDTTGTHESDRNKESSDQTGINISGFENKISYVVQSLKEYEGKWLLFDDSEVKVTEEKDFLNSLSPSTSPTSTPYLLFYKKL
USP1 (construct USP1 (I-785, GG670, 671AA)/UAF1 (I-677)-Flag), sequence (Q8TAF3 whole entry partner): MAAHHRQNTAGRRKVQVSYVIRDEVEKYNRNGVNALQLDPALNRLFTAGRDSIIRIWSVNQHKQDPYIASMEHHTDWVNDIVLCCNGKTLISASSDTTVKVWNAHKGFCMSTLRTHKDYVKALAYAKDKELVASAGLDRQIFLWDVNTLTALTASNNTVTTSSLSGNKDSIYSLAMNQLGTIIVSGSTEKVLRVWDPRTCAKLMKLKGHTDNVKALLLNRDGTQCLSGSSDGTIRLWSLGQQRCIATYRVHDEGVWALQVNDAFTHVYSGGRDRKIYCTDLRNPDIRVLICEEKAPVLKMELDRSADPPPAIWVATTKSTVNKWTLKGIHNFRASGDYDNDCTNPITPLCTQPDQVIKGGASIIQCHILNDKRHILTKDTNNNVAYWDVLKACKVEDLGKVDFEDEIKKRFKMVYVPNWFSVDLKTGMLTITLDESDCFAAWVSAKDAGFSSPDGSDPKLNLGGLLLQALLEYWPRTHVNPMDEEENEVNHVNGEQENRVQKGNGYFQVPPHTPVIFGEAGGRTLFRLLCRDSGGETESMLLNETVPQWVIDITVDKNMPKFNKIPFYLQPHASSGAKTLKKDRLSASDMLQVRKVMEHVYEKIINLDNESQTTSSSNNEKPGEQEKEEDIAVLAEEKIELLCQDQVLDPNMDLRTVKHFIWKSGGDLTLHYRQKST

SMILES | pIC50
CC(C)c1ccccc1-c1ncc2[nH]c(=O)n(Cc3cccc(-n4cccn4)c3)c2n1 [Compound I-197, 9-(3-(1H-pyrazol-1-yl)benzyl)-2-(2-isopropylphenyl)-7,9-dihydro-8H-purin-8-one] | 6.70 to 7.30
CC(C)c1ccccc1-c1ncc2[nH]c(=O)n(Cc3ccc(-c4nc(Cl)cn4C)cc3)c2n1 [Compound I-198, 9-(4-(4-chloro-1-methyl-1H-imidazol-2-yl)benzyl)-2-(2-isopropylphenyl)-7,9-dihydro-8H-purin-8-one] | > 7.30
CC(C)c1ccccc1-c1ncc2[nH]c(=O)n(Cc3ccc(-n4nc(C#N)cc4C#N)cc3)c2n1 [Compound I-199, 1-(4-((2-(2-isopropylphenyl)-8-oxo-7,8-dihydro-9H-purin-9-yl)methyl)phenyl)-1H-pyrazole-3,5-dicarbonitrile] | > 7.30
Cc1nc(-c2ccc(Cn3c(=O)[nH]c4cnc(-c5ccccc5C(C)C)nc43)cc2)c(C)o1 [Compound I-200, 9-(4-(2,5-dimethyloxazol-4-yl)benzyl)-2-(2-isopropylphenyl)-7,9-dihydro-8H-purin-8-one] | > 7.30
CC(C)c1c(F)cccc1-c1ncc2[nH]c(=O)n(Cc3ccc(-c4nc(C(F)(F)F)cn4C4COC4)cc3)c2n1 [Compound I-201, 2-(3-fluoro-2-isopropylphenyl)-9-(4-(1-(oxetan-3-yl)-4-(trifluoromethyl)-1H-imidazol-2-yl)benzyl)-7,9-dihydro-8H-purin-8-one] | > 7.30
Cc1cn(C2COC2)c(-c2ccc(Cn3c(=O)[nH]c4cnc(-c5cccc(F)c5C(C)C)nc43)cc2)n1 [Compound I-202, 2-(3-fluoro-2-isopropylphenyl)-9-(4-(4-methyl-1-(oxetan-3-yl)-1H-imidazol-2-yl)benzyl)-7,9-dihydro-8H-purin-8-one] | > 7.30
Cc1cn(C)c(-c2ccc(Cn3c(=O)[nH]c4cnc(-c5ccccc5C(C)C)nc43)cn2)n1 [Compound I-203, 9-((6-(1,4-dimethyl-1H-imidazol-2-yl)pyridin-3-yl)methyl)-2-(2-isopropylphenyl)-7,9-dihydro-8H-purin-8-one] | > 7.30
COc1ccn(-c2ccc(Cn3c(=O)[nH]c4cnc(-c5ccccc5C(C)C)nc43)cc2)n1 [Compound I-204, 2-(2-isopropylphenyl)-9-(4-(3-methoxy-1H-pyrazol-1-yl)benzyl)-7,9-dihydro-8H-purin-8-one] | > 7.30
CC(C)c1ccccc1-c1ncc2[nH]c(=O)n(Cc3ccc(-n4c(=O)ccn4C)cc3)c2n1 [Compound I-205, 2-(2-isopropylphenyl)-9-(4-(2-methyl-5-oxo-2,5-dihydro-1H-pyrazol-1-yl)benzyl)-7,9-dihydro-8H-purin-8-one] | 6.70 to 7.30
COc1ccnn1-c1ccc(Cn2c(=O)[nH]c3cnc(-c4ccccc4C(C)C)nc32)cc1 [Compound I-206, 2-(2-isopropylphenyl)-9-(4-(5-methoxy-1H-pyrazol-1-yl)benzyl)-7,9-dihydro-8H-purin-8-one] | > 7.30
Cc1cc(C#N)nn1-c1ccc(Cn2c(=O)[nH]c3cnc(-c4ccccc4C(C)C)nc32)cc1 [Compound I-207, 1-(4-((2-(2-isopropylphenyl)-8-oxo-7,8-dihydro-9H-purin-9-yl)methyl)phenyl)-5-methyl-1H-pyrazole-3-carbonitrile] | > 7.30
Cc1cc(C#N)n(-c2ccc(Cn3c(=O)[nH]c4cnc(-c5ccccc5C(C)C)nc43)cc2)n1 [Compound I-208, 1-(4-((2-(2-isopropylphenyl)-8-oxo-7,8-dihydro-9H-purin-9-yl)methyl)phenyl)-3-methyl-1H-pyrazole-5-carbonitrile] | > 7.30
CC(C)c1ccccc1-c1ncc2[nH]c(=O)n(Cc3ccc(-c4nc(C(F)(F)F)nn4C)cc3)c2n1 [Compound I-209, 2-(2-isopropylphenyl)-9-(4-(1-methyl-3-(trifluoromethyl)-1H-1,2,4-triazol-5-yl)benzyl)-7,9-dihydro-8H-purin-8-one] | > 7.30
Cc1cc(Cl)nn1-c1ccc(Cn2c(=O)[nH]c3cnc(-c4ccccc4C(C)C)nc32)cc1 [Compound I-210, 9-(4-(3-chloro-5-methyl-1H-pyrazol-1-yl)benzyl)-2-(2-isopropylphenyl)-7,9-dihydro-8H-purin-8-one] | > 7.30
Cc1cc(Cl)n(-c2ccc(Cn3c(=O)[nH]c4cnc(-c5ccccc5C(C)C)nc43)cc2)n1 [Compound I-211, 9-(4-(5-chloro-3-methyl-1H-pyrazol-1-yl)benzyl)-2-(2-isopropylphenyl)-7,9-dihydro-8H-purin-8-one] | > 7.30
Cc1cc(C)n([C@H]2CC[C@@H](Cn3c(=O)[nH]c4cnc(-c5ccccc5C(C)C)nc43)CC2)n1 [Compound I-212, 9-(((1s,4s)-4-(3,5-dimethyl-1H-pyrazol-1-yl)cyclohexyl)methyl)-2-(2-isopropylphenyl)-7,9-dihydro-8H-purin-8-one] | > 7.30
Cc1cc(C)n([C@H]2CC[C@H](Cn3c(=O)[nH]c4cnc(-c5ccccc5C(C)C)nc43)CC2)n1 [Compound I-213, 9-(((1r,4r)-4-(3,5-dimethyl-1H-pyrazol-1-yl)cyclohexyl)methyl)-2-(2-isopropylphenyl)-7,9-dihydro-8H-purin-8-one] | 5.70 to 6.70

SMILES | pIC50
CC(C)c1ccccc1-c1ncc2[nH]c(=O)n([C@H](C)c3ccc(-c4nc(C(F)(F)F)cn4C)cc3)c2n1 [Compound I-214, (R)-2-(2-isopropylphenyl)-9-(1-(4-(1-methyl-4-(trifluoromethyl)-1H-imidazol-2-yl)phenyl)ethyl)-7,9-dihydro-8H-purin-8-one] | > 7.30
CC(C)c1ccccc1-c1ncc2[nH]c(=O)n([C@@H](C)c3ccc(-c4nc(C(F)(F)F)cn4C)cc3)c2n1 [Compound I-215, (S)-2-(2-isopropylphenyl)-9-(1-(4-(1-methyl-4-(trifluoromethyl)-1H-imidazol-2-yl)phenyl)ethyl)-7,9-dihydro-8H-purin-8-one] | > 7.30
CC(C)c1ccccc1-c1ncc2[nH]c(=O)n(Cc3ccc(C4OCC4(C)C)cc3)c2n1 (stereo not drawn) [Compound I-216, 9-(4-(3,3-dimethyloxetan-2-yl)benzyl)-2-(2-isopropylphenyl)-7,9-dihydro-8H-purin-8-one] | 6.70 to 7.30
CC(=O)Nc1cccc(Cn2c(=O)[nH]c3cnc(-c4ccccc4C(C)C)nc32)c1 [Compound I-217, N-(3-((2-(2-isopropylphenyl)-8-oxo-7,8-dihydro-9H-purin-9-yl)methyl)phenyl)acetamide] | 5.70 to 6.70
CC(=O)Nc1ccc(Cn2c(=O)[nH]c3cnc(-c4ccccc4C(C)C)nc32)cc1 [Compound I-218, N-(4-((2-(2-isopropylphenyl)-8-oxo-7,8-dihydro-9H-purin-9-yl)methyl)phenyl)acetamide] | 5.70 to 6.70
CC(C)c1ccccc1-c1ncc2[nH]c(=O)n(Cc3ccc(-c4ncc(C(F)(F)F)n4C)cc3)c2n1 [Compound I-219, 2-(2-isopropylphenyl)-9-(4-(1-methyl-5-(trifluoromethyl)-1H-imidazol-2-yl)benzyl)-7,9-dihydro-8H-purin-8-one] | > 7.30
CC(C)c1ccccc1-c1ncc2[nH]c(=O)n(CC3(F)CCN(C(=O)OC(C)(C)C)CC3)c2n1 [Compound I-220, tert-butyl 4-fluoro-4-((2-(2-isopropylphenyl)-8-oxo-7,8-dihydro-9H-purin-9-yl)methyl)piperidine-1-carboxylate] | 6.70 to 7.30
CC(C)c1ccccc1-c1ncc2[nH]c(=O)n(Cc3ccc(-n4cc(C5CCNCC5)cn4)cc3)c2n1 [Compound I-221, 2-(2-isopropylphenyl)-9-(4-(4-(piperidin-4-yl)-1H-pyrazol-1-yl)benzyl)-7,9-dihydro-8H-purin-8-one] | 5.70 to 6.70
CC(C)c1ccccc1-c1ncc2[nH]c(=O)n(Cc3ccc(-n4ccc(C5CCNC5)n4)cc3)c2n1 (stereo not drawn) [Compound I-222, 2-(2-isopropylphenyl)-9-(4-(3-(pyrrolidin-3-yl)-1H-pyrazol-1-yl)benzyl)-7,9-dihydro-8H-purin-8-one] | 5.70 to 6.70
CC(C)c1ccccc1-c1ncc2[nH]c(=O)n(Cc3ccc(-n4ccc(C5CCCNC5)n4)cc3)c2n1 (stereo not drawn) [Compound I-223, 2-(2-isopropylphenyl)-9-(4-(3-(piperidin-3-yl)-1H-pyrazol-1-yl)benzyl)-7,9-dihydro-8H-purin-8-one] | 6.70 to 7.30
CC(C)c1ccccc1-c1ncc2[nH]c(=O)n(Cc3ccc(-n4ccc([C@@H]5CCCNC5)n4)cc3)c2n1 [Compound I-224, (R)-2-(2-isopropylphenyl)-9-(4-(3-(piperidin-3-yl)-1H-pyrazol-1-yl)benzyl)-7,9-dihydro-8H-purin-8-one] | 6.70 to 7.30
CC(C)c1ccccc1-c1ncc2[nH]c(=O)n(C3(c4ccc(-n5cccn5)cc4)CC3)c2n1 [Compound I-226, 9-(1-(4-(1H-pyrazol-1-yl)phenyl)cyclopropyl)-2-(2-isopropylphenyl)-7,9-dihydro-8H-purin-8-one] | > 7.30
CC(C)c1ccccc1-c1ncc2[nH]c(=O)n(C3(c4ccc(F)cc4)CC3)c2n1 [Compound I-227, 9-(1-(4-fluorophenyl)cyclopropyl)-2-(2-isopropylphenyl)-7,9-dihydro-8H-purin-8-one] | > 7.30
CC(C)c1ccccc1-c1ncc2c(n1)n(Cc1ccc(OCC3CC3)cc1)c(=O)n2C [Compound I-228, 9-(4-(cyclopropylmethoxy)benzyl)-2-(2-isopropylphenyl)-7-methyl-7,9-dihydro-8H-purin-8-one] | 6.70 to 7.30
CC(C)c1ccccc1-c1ncc2c(n1)n(Cc1ccc(OCC3CCOC3)cc1)c(=O)n2C (stereo not drawn) [Compound I-229, 2-(2-isopropylphenyl)-7-methyl-9-(4-((tetrahydrofuran-3-yl)methoxy)benzyl)-7,9-dihydro-8H-purin-8-one] | 6.70 to 7.30
CC(C)c1ccccc1-c1ncc2c(n1)n(Cc1ccc(OCC3CCCN(C)C3)cc1)c(=O)n2C (stereo not drawn) [Compound I-230, 2-(2-isopropylphenyl)-7-methyl-9-(4-((1-methylpiperidin-3-yl)methoxy)benzyl)-7,9-dihydro-8H-purin-8-one] | 5.70 to 6.70
